In patent US20060063930A1, “Compositions and methods comprising proteinase activated receptor antagonists” (priority 2004, published 2006):
Where no end group is shown, it is not given here.

tested on: PAR-2; experiment: Inhibition of PAR-2 activating peptide (AP2) calcium signaling in cells pretreated with antagonist; format: cell-based, human; parameters: key to PAR-2 AP2 Signaling Treated/Control (T/C) / PAR-2 AP2 Signaling Treated/Control: AUC of calcium mobilization, treated ÷ control wells; conditions: peptides; AUC of calcium mobilization treated/control; initially screened at 1 mM compound
Outline: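 LLC cells loaded with Fluo-4 (4 uM final), and U87-MG glioma cells loaded with FLIPR Calcium 3 dye with 2.5 mM probenecid, were pretreated with antagonist, then stimulated with PAR-2 activating peptide. Initial screening was at 1 mM. Calcium AUC of treated over control wells is reported as T/C.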

**Q.** LIGK-amide (LIGK-NH2) [ENMD-1020] was tested. Which “PAR-2 AP2 Signaling Treated/Control (T/C)” value did it give?
**A.** 0.54

**Q.** LIGM [ENMD-1064] was tested. Which “PAR-2 AP2 Signaling Treated/Control (T/C)” value did it give?
**A.** 1.19

**Q.** How did the “PAR-2 AP2 Signaling Treated/Control (T/C)” value turn out when LIGN [ENMD-1047] was run?
**A.** 0.88

**Q.** LIGQ [ENMD-1048] was tested. Which “PAR-2 AP2 Signaling Treated/Control (T/C)” value did it give?
**A.** 0.59

**Q.** How did the “PAR-2 AP2 Signaling Treated/Control (T/C)” value turn out when LIGR [ENMD-1022] was run?
**A.** 0.26

**Q.** For LIGS [ENMD-1049], which “PAR-2 AP2 Signaling Treated/Control (T/C)” value is on record?
**A.** 0.64

**Q.** For LIGT [ENMD-1050], which “PAR-2 AP2 Signaling Treated/Control (T/C)” value is on record?
**A.** 0.70

**Q.** Which “PAR-2 AP2 Signaling Treated/Control (T/C)” value does the source give for LIGY [ENMD-1051] here?
**A.** 0.83

**Q.** Which “PAR-2 AP2 Signaling Treated/Control (T/C)” value does the source give for LIPK [ENMD-1052] here?
**A.** 0.89

**Q.** LPGK [ENMD-1053] was tested. Which “PAR-2 AP2 Signaling Treated/Control (T/C)” value did it give?
**A.** 0.89

**Q.** How did the “PAR-2 AP2 Signaling Treated/Control (T/C)” value turn out when dI-dG-dK [ENMD-1383] was run?
**A.** 0.48

**Q.** For dL-dI-dG-dK [ENMD-1032], which “PAR-2 AP2 Signaling Treated/Control (T/C)” value is on record?
**A.** 0.44

same assay, conditions: pretreated cells, then P2AP

**Q.** How did the “PAR-2 antagonist activity in vitro (in words)” value turn out when LIGKV [ENMD-1007] was run?
**A.** demonstrated antagonist activity

tested on: PAR-2; experiment: PAR signalling activity: calcium mobilization (Fluo-4) in response to peptide; format: cell-based; conditions: FIGS. 2A-2C
Protocol: Confluent HUVECs, Lewis lung carcinoma cells or U87-MG glioma cells or HT29 colon carcinoma cells were loaded for 30-60 minutes with the fluorescent dye Fluo-4. Final concentration 4 uM Fluo-4, 0.02% pluronic acid in physiological buffer. Cells were then washed with assay buffer, (HBSS containing 1 mM CaCl2, 1 mM MgSO4, and 2.5 mM probenecid). Cells were stimulated with various doses of PAR-2 activating peptide, PAR-1 activating peptide or ATP. Fluorescence was monitored using a Wallac 1470 fluorescent plate reader. (See Al-ani et. al Journal of Pharmacology and Experimental Therapeutics 290:2, 753-760)
Calcium mobilization curves of the PAR-2 agonist SLIGKV (ENMD-1003) (SEQ ID NO:52) compared with two truncated molecules LIGK (ENMD-1005) (SEQ ID NO:1) and LIGKV (ENMD-1007) (SEQ ID NO:2) are provided in FIG. 2A. […] Similar studies were performed on alanine substituted SLIGKV (ENMD-1003) (SEQ ID NO:52) peptides (FIGS. 2B and 2C).

**Q.** For LIGKV [ENMD-1007], which “Calcium mobilization / PAR-2 signaling activity (in words)” value is on record?
**A.** Neither truncated molecule was able to induce calcium mobilization

**Q.** Which “Calcium mobilization / PAR-2 signaling activity (in words)” value does the source give for SLIAKV [ENMD-1011] here?
**A.** robust signaling activity

**Q.** SLIGKA [ENMD-1013] was tested. Which “Calcium mobilization / PAR-2 signaling activity (in words)” value did it give?
**A.** robust signaling activity

**Q.** With SLIGKV [ENMD-1003, reference compound] as the substance, how does the “Calcium mobilization / PAR-2 signaling activity (in words)” value read?
**A.** typical spike of calcium release followed by degradation of signal
